# Values of other authors as cited in patent US10927398B2, “Compositions for CYP450 phenotyping using saliva samples” (Concordia University, Inc., priority 2015, dated 2021).
# Read-outs that look alike come from different tables or passages of the source.
# Columns and labels:
# [1] = cited from earlier work
# [2] = tested on: plasma protein; conditions: cited from earlier work
# [3] = cited from earlier work; remark: listed apart in the source
# [4] = Table of Exemplary Drugs, CYP2D6
# [5] = Table of Exemplary Drugs, CYP3A4
# [6] = Table of Exemplary Drugs, CYP1A2
# [7] = Table of Exemplary Drugs, CYP2C9
# [8] = Table of Exemplary Drugs, CYP2C19
smiles,measurement,setting,value
COc1ccc(C(=O)Nc2ccccc2CCC2CCCCN2C)cc1 (stereo not drawn) [Encainide],ORAL BIOAVAILABILITY,[1]; [4],25-90%
same,PLASMA PROTEIN BINDING,[2]; [4],70.5-78% ^
same,HALF-LIFE,[3]; [4],1.5 to 11.3 h
COCCc1ccc(OCC(O)CNC(C)C)cc1 (stereo not drawn) [Metoprolol],ORAL BIOAVAILABILITY,[1]; [4],77%
same,PLASMA PROTEIN BINDING,[2]; [4],12%
same,HALF-LIFE,[3]; [4],3 to 7 h
"CCN(CC)CCN1C(=O)CN=C(c2ccccc2F)c2cc(Cl)ccc21 [Flurazepam (Dalmane), Flurazepam]",ORAL BIOAVAILABILITY,[1]; [5],83%
same,PLASMA PROTEIN BINDING,[2]; [5],97.2%^
same,HALF-LIFE,[3]; [5],2.3 h
CN1CCN(C2=Nc3cc(Cl)ccc3Nc3ccccc32)CC1 [Clozapine],ORAL BIOAVAILABILITY,[1]; [6],12-81%
same,PLASMA PROTEIN BINDING,[2]; [6],97%
same,HALF-LIFE,[3]; [6],4 to 66 h
COc1ccc2c3c1O[C@H]1C(=O)CC[C@@]4(O)[C@@H](C2)N(C)CC[C@]314 [Oxycodone],ORAL BIOAVAILABILITY,[1]; [4],60-87%
same,ORAL BIOAVAILABILITY,[1]; [5],60-87%
same,PLASMA PROTEIN BINDING,[2]; [4],45%
same,PLASMA PROTEIN BINDING,[2]; [5],45%
same,HALF-LIFE,[3]; [4],5.6 h
same,HALF-LIFE,[3]; [5],5.6 h
CCCCCc1cc(O)c2c(c1)OC(C)(C)[C@@H]1CCC(C)=C[C@@H]21 [THC],ORAL BIOAVAILABILITY,[1]; [7],10-35%
same,PLASMA PROTEIN BINDING,[2]; [7],97-99% ^
same,HALF-LIFE,[3]; [7],1.6 to 59 h
O=C1NC(=O)C(c2ccccc2)(c2ccccc2)N1 [Phenytoin],ORAL BIOAVAILABILITY,[1]; [7],20-90%
same,ORAL BIOAVAILABILITY,[1]; [8],20-90%
same,PLASMA PROTEIN BINDING,[2]; [7],88-93% ^
same,PLASMA PROTEIN BINDING,[2]; [8],88-93% ^
same,HALF-LIFE,[3]; [7],14 to 22 h
same,HALF-LIFE,[3]; [8],14 to 22 h
CC(=O)[C@H]1CC[C@H]2[C@@H]3CCC4=CC(=O)CC[C@]4(C)[C@H]3CC[C@]12C [Progesterone],ORAL BIOAVAILABILITY,[1]; [8],10-15%
same,PLASMA PROTEIN BINDING,[2]; [8],95-99% ^
same,HALF-LIFE,"[3]; cell marked PV, Table of Exemplary Drugs, CYP2C19",PV: 5-20 min
"COc1cc(N)c(Cl)cc1C(=O)NC1CCN(CCCOc2ccc(F)cc2)CC1OC (stereo not drawn) [Cisapride (Propulsid), Cisapride]",ORAL BIOAVAILABILITY,[1]; [5],35-65%
same,PLASMA PROTEIN BINDING,[2]; [5],98%
same,HALF-LIFE,[3]; [5],6 to 12 h
"C[C@@H](O[C@H]1OCCN(Cc2n[nH]c(=O)[nH]2)[C@H]1c1ccc(F)cc1)c1cc(C(F)(F)F)cc(C(F)(F)F)c1 [Aprepitant (Emend), Aprepitant]",ORAL BIOAVAILABILITY,[1]; [5],60-65%
same,PLASMA PROTEIN BINDING,[2]; [5],95%
same,HALF-LIFE,[3]; [5],9 to 13 h
COc1cc(C(C)=O)ccc1OCCCN1CCC(c2noc3cc(F)ccc23)CC1 [Iloperidone],ORAL BIOAVAILABILITY,[1]; [4],96%
same,PLASMA PROTEIN BINDING,[2]; [4],95%
same,HALF-LIFE,[3]; [4],18 to 33 h
Cc1ccc(S(=O)(=O)NC(=O)NN2CC3CCCC3C2)cc1 (stereo not drawn) [Gliclazide],ORAL BIOAVAILABILITY,[1]; [8],80%
same,PLASMA PROTEIN BINDING,[2]; [8],85-99% ^
same,HALF-LIFE,[3]; [8],8 to 12 h
CCCCC1=NC2(CCCC2)C(=O)N1Cc1ccc(-c2ccccc2-c2nnn[nH]2)cc1 [Irbesartan],ORAL BIOAVAILABILITY,[1]; [7],60-80%
same,PLASMA PROTEIN BINDING,[2]; [7],90%
same,HALF-LIFE,[3]; [7],11 to 15 h
CCc1ccc(CCOc2ccc(CC3SC(=O)NC3=O)cc2)nc1 (stereo not drawn) [Pioglitazone],ORAL BIOAVAILABILITY,[1]; [5],50%
same,PLASMA PROTEIN BINDING,[2]; [5],>99%
same,HALF-LIFE,[3]; [5],3 to 7 h
CCC1(c2ccccc2)C(=O)NC(=O)NC1=O [Phenobarbital],ORAL BIOAVAILABILITY,"[1]; in vivo, po",80-100%
same,PLASMA PROTEIN BINDING,[2]; plasma,20-60% ^
same,HALF-LIFE,[3]; in vivo,36 to 120 h
"CCCc1nc(C)c2c(=O)[nH]c(-c3cc(S(=O)(=O)N4CCN(CC)CC4)ccc3OCC)nn12 [Vardenafil (Levitra), Vardenafil]",ORAL BIOAVAILABILITY,[1]; [5],15-44%
same,PLASMA PROTEIN BINDING,[2]; [5],95%
same,HALF-LIFE,[3]; [5],4 to 5 h
O=C(NCC1CCCCN1)c1cc(OCC(F)(F)F)ccc1OCC(F)(F)F (stereo not drawn) [Flecainide],ORAL BIOAVAILABILITY,[1]; [4],70-95%
same,PLASMA PROTEIN BINDING,[2]; [4],40%
same,HALF-LIFE,[3]; [4],20 h
"CC#C[C@]1(O)CC[C@H]2[C@@H]3CCC4=CC(=O)CCC4=C3[C@@H](c3ccc(N(C)C)cc3)C[C@@]21C [Mifepristone (Mifeprex), Mifepristone]",ORAL BIOAVAILABILITY,[1]; [5],69%
same,PLASMA PROTEIN BINDING,[2]; [5],99.2%^
same,HALF-LIFE,[3]; [5],20 to 85 h
